Like-named read-outs stand apart in the source and are kept apart here.
Assays:
[1] = target: T1, SMYD2 (Homo sapiens, UniProt Q9NRG4); assay: SMYD2 Biochemical Assay (3H-SAM, biotinylated peptide substrate, Flashplate)
T1 construct: Full length SMYD2 (NP 064582.2) was cloned; His6 (N, cleaved yes); FLAG (N); made in house; host or cells: Sf9 insect cells
Outline: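 Methyltransferase activity tracked as 3H transfer from 10 nM 3H-SAM to 60 nM biotinylated peptide, counted after streptavidin Flashplate capture and normalised to DMSO and 1000 uM SAH controls. Enzyme: 1.5 nM full-length Sf9-expressed SMYD2, 30 min compound pre-incubation at room temperature, in Bicine pH 7.6 buffer with 2% DMSO; reactions quenched with 600 uM unlabelled SAM; IC50 from 3- or 4-parameter fit.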

[2] = test system: esophageal, liver and breast cancer cell lines; conditions: several esophageal, dose-dependent; cited from earlier work
[3] = IC50 values are an average of n = 1 to n = 50, read-out: SMYD2 Biochem IC50 (μM)*
[4] = Table 1, average of n = 1 to n = 50, read-out: SMYD2 Biochem IC50

T1 sequence (Q9NRG4 whole entry): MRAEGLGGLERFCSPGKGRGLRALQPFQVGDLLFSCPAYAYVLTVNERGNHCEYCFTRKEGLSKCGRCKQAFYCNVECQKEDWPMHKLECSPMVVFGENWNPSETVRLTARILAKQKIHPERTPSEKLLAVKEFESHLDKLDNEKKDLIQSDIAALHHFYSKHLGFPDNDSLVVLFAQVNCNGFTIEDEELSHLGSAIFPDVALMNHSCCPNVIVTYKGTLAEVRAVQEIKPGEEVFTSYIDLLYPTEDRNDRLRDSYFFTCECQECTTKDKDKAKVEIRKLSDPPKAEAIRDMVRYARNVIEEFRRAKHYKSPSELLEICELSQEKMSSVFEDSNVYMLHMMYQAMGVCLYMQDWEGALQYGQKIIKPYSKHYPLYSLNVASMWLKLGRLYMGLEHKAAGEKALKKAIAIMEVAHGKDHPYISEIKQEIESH

| IC50 [1, 3] | SMILES | further results |
| --- | --- | --- |
| > 50 µM | CC(C)c1cc(C(=O)N[C@H]2C[C@H](CNC(=O)c3ccccc3)N(C3CC3)C2)no1 (stereo in doubt) [compound 189, (±)-trans-N-[1-cyclopropyl-5-[(phenyl-formamido)methyl]pyrrolidin-3-yl]-5-(propan-2-yl)-1,2-oxazole-3-carboxamide] |  |
| > 50 µM | CC(C)c1cc(C(=O)N[C@H]2C[C@H](CNC(=O)C3CCCCC3)N(C3CC3)C2)no1 (stereo in doubt) [compound 190, (±)-trans-N-[5-[(cyclohexyl-formamido)methyl]-1-cyclopropylpyrrolidin-3-yl]-5-(propan-2-yl)-1,2-oxazole-3-carboxamide] |  |
| > 50 µM | CC(C)N1C[C@@H](NC(=O)c2cc(C3CC3)on2)C[C@@H]1COCC#CC1CCCCC1 (stereo in doubt) [compound 236, (±)-trans-N-[5-{[(3-cyclo-hexylprop-2-yn-1-yl)oxy]methyl}-1-(propan-2-yl)pyrrolidin-3-yl]-5-cyclopropyl-1,2-oxazole-3-carboxamide] |  |
| 39.7 µM | CC(C)N1C[C@H](NC(=O)c2cc(C3CC3)on2)C[C@@H]1COCC#Cc1ccccc1 (stereo in doubt) [compound 238, (±)-cis-5-cyclopropyl-N-[5-{[(3-phenylprop-2-yn-1-yl)oxy]methyl}-1-(propan-2-yl)pyrrolidin-3-yl]-1,2-oxazole-3-carboxamide] |  |
| > 50 µM | CC(C)N1C[C@@H](NC(=O)c2cc(C3CC3)on2)C[C@H]1COCC#Cc1ccccc1 (stereo in doubt) [compound 240, (±)-cis-5-cyclopropyl-N-[(5-{[(3-phenylprop-2-yn-1-yl)oxy]methyl}-1-(propan-2-yl)pyrrolidin-3-yl]-1,2-oxazole-3-carboxamide] |  |
| > 50 µM | CC(C)c1cc(C(=O)N[C@@H]2C[C@@H](CNC(=O)c3ccccc3)N(C3CC3)C2)no1 (stereo in doubt) [compound 242, (±)-trans-N-[1-cyclo-propyl-5-[(phenyl-formamido)methyl]pyrrolidin-3-yl]-5-(propan-2-yl)-1,2-oxazole-3-carboxamide] |  |
| > 50 µM | CC(C)c1cc(C(=O)N[C@@H]2C[C@@H](CNC(=O)C3CCCCC3)N(C3CC3)C2)no1 (stereo in doubt) [compound 243, (±)-trans-N-[5-[(cyclo-hexylformamido)methyl]-1-cyclopropylpyrrolidin-3-yl]-5-(propan-2-yl)-1,2-oxazole-3-carboxamide] |  |
| > 50 µM | CC(C)N1C[C@H](NC(=O)c2cc(C3CC3)on2)C[C@H]1COCC#CC1CCCCC1 (stereo in doubt) [compound 244, (±)-trans-N-[5-{[(3-cyclo-hexylprop-2-yn-1-yl)oxy]methyl}-1-(propan-2-yl)pyrrolidin-3-yl]-5-cyclopropyl-1,2-oxazole-3-carboxamide] |  |
| > 50 µM | CC(N1C[C@H](C)[C@H](NC(=O)c2cc(C3CC3)on2)C1)C(F)(F)F (stereo in doubt) [compound 285, trans-5-cyclopropyl-N-[4-methyl-1-(1,1,1-trifluoropropan-2-yl)pyrrolidin-3-yl]-1,2-oxazole-3-carboxamide] |  |
|  | Cc1cn(CCN2CCN(c3ccccc3-c3cc(C#N)cc(C(=O)NCCCN4CCCC4)c3)CC2)c2ccccc12 [LLY-507] | inhibition of proliferation of cancer cell lines [2]: inhibited the proliferation |
|  | O=C(NC1CCN(C2CC2)C1)c1cc(C2CC2)on1 (centres unmarked) [compound 36, 5-cyclopropyl-N-(1-cyclopropylpyrrolidin-3-yl)isoxazole-3-carboxamide] | IC50 [1, 4]: 32.5 µM |
|  | O=C(NC1CNCC1O)c1cc(C2CC2)on1 (centres unmarked) [compound 37, 5-cyclopropyl-N-(4-hydroxypyrrolidin-3-yl)isoxazole-3-carboxamide] | IC50 [1, 4]: 36.1 µM |
|  | CC(C)N1C[C@@H](C)[C@H](NC(=O)c2cc(C3CC3)on2)C1 [compound 41, 5-cyclopropyl-N-((3S,4R)-1-isopropyl-4-methylpyrrolidin-3-yl)isoxazole-3-carboxamide] | IC50 [1, 4]: 18.2 µM |
|  | CC(C)N1C[C@H](NC(=O)c2cc(C3CC3)on2)[C@@H](C)C1 [compound 42, 5-cyclopropyl-N-((3R,4S)-1-isopropyl-4-methyl-pyrrolidin-3-yl)isoxazole-3-carboxamide] | IC50 [1, 4]: 1.9 µM |
| 38.2 µM | C[C@H](c1ccccc1)N1C[C@@H](CO)[C@H](NC(=O)c2cc(C3CC3)on2)C1 [compound 119, 5-cyclopropyl-N-[(3S,4R)-4-(hydroxymethyl)-1-[(1R)-1-phenylethyl]pyrrolidin-3-yl]-1,2-oxazole-3-carboxamide] |  |
| 43.2 µM | O=C(N[C@@H]1CN(C2CC2)C[C@H]1CO)c1cc(C2CC2)on1 [compound 168, 5-cyclopropyl-N-[(3S,4R)-1-cyclopropyl-4-(hydroxymethyl)pyrrolidin-3-yl]-1,2-oxazole-3-carboxamide] |  |
| > 50 µM | C[C@@H]1CN(Cc2ccc3nonc3c2)C[C@H]1NC(=O)c1cc(C2CC2)on1 [compound 182, N-[(3S,4R)-1-(2,1,3-benzoxadiazol-5-ylmethyl)-4-methyl-pyrrolidin-3-yl]-5-cyclopropyl-1,2-oxazole-3-carboxamide] |  |
| 0.682 µM | CC(C)N1C[C@@H](C)[C@@H](NC(=O)c2cc(C3CC3)on2)C1 [compound 234, 5-cyclopropyl-N-[(3R,4R)-4-methyl-1-(propan-2-yl)pyrrolidin-3-yl]-1,2-oxazole-3-carboxamide] |  |
| 1.15 µM | C[C@@H]1CN(C2CC2)C[C@@H]1NC(=O)c1cc(C2CC2)on1 [compound 235, 5-cyclopropyl-N-[(3R,4R)-1-cyclopropyl-4-methyl-pyrrolidin-3-yl]-1,2-oxazole-3-carboxamide] |  |
| 10.5 µM | CC(C)N1CC(CNC(=O)c2ccccc2)C(NC(=O)c2cc(C3CC3)on2)C1 (centres unmarked) [compound 237, 5-cyclopropyl-N-{4-[(phenylformamido)methyl]-1-(propan-2-yl)pyrrolidin-3-yl}-1,2-oxazole-3-carboxamide] |  |
| 6.8 µM | CC(C)N1C[C@@H](NC(=O)c2cc(C3CC3)on2)[C@](C)(O)C1 [compound 245, 5-cyclopropyl-N-[(3R,4R)-4-hydroxy-4-methyl-1-(propan-2-yl)pyrrolidin-3-yl]-1,2-oxazole-3-carboxamide] |  |
| > 50 µM | CC(C)N1C[C@H](NC(=O)c2cc(C3CC3)on2)[C@@](C)(O)C1 [compound 246, 5-cyclopropyl-N-[(3S,4S)-4-hydroxy-4-methyl-1-(propan-2-yl)pyrrolidin-3-yl]-1,2-oxazole-3-carboxamide] |  |
| > 50 µM | CC(N1C[C@@H](C)[C@H](NC(=O)c2cc(C3CC3)on2)C1)C(F)(F)F (stereo partly drawn) [compound 247, trans-5-cyclopropyl-N-[(3S,4R)-4-methyl-1-(1,1,1-trifluoropropan-2-yl)pyrrolidin-3-yl]-1,2-oxazole-3-carboxamide] |  |

Source: US20170253601A1, “Substituted Pyrrolidine Compounds” (EPIZYME, INC., priority 2014, published 2017)
